Results on seven substances are retold here after patent publication US20050096294A1, “Novel anti-coagulant” (priority 2003, published 2005).

What all share (format): biochemical, human
Assay [1] deals with extrinsic pathway coagulation. As to the kind of experiment: Prothrombin time (PT). The settings on record: for PT: standard control 12.6. An excerpt:
(5) Prothrombin Time (PT):
The present method is a method for inspecting dynamics of extrinsic pathway coagulation. The present method has sensitivity to qualitative and quantitative abnormality in the factor II (prothrombin), the factor V, the factor VII, the factor X and the factor I (fibrinogen), and it is scarcely influenced by the […] and the factor VIII. First, normal (normal volunteer) blood citrate-collected (collected in a plastic test tube charged with 3.13 wt % sodium citrate of 1/10 volume) was subjected to centrifugal separation at 3000 rpm for 10 minutes to obtain supernatant plasma. The PT time was obtained by mixing plasma for inspection with a PT reagent (a mixed solution of tissue thromboplastin and calcium chloride) to measure fibrin-depositing time (second) (using an automatic measuring apparatus). The sample of the sulfated polysaccharide was added to the plasma for inspection in an addition concentration of 0.001 to 1 mg/ml, and normal plasma was used for a standard control.

In assay [2] the test system is intrinsic pathway coagulation. In words: Activated partial thromboplastin time (APTT). The text has this:
(4) Activated Partial Thromboplastin Time (APTT):
The present method is a method for inspecting dynamics of intrinsic pathway coagulation. The present method has sensitivity to qualitative and quantitative abnormality in the factor XII, the factor XI, high molecular weight kininogen, prekallikrein, the factor IX, the factor VIII, the factor X, the factor V, the factor II (prothrombin) and the factor I (fibrinogen). First, normal (normal volunteer) blood citrate-collected (collected in a plastic test tube charged with 3.13 wt % sodium citrate of 1/10 volume) was subjected to centrifugal separation at 3000 rpm for 10 minutes to obtain supernatant plasma. The APTT time was obtained by mixing plasma for inspection with an APTT reagent and then measuring fibrin-depositing time (second) after adding a calcium chloride solution (using an automatic measuring apparatus). The sulfated polysaccharide was added to the plasma for inspection in an addition concentration of 0.001 to 1 mg/ml, and normal plasma was used for a standard control.

Assay [3] concerns blood immediately after collected from a normal person. As to the kind of experiment: Normal blood coagulation time. The settings on record: for Normal blood coagulation time: standard control 42.5. How it is done: (3) Normal Blood Coagulation Time (Second):
The sulfated polysaccharide 50 μl was separately put (the concentration was adjusted so that the final concentration was a measured concentration) in advance into plastic test tubes (3.3 ml blood collected tube, manufactured by IWAKI Co., Ltd.), and each 1 ml of blood immediately after collected from a normal person was put into the test tubes containing the sulfated polysaccharide and quickly mixed, and the test tubes were repetitively inclined to measure time (second) in which the fluidity disappeared.

[4] abbreviates: addition concentration 1 mg/ml in normal plasma, standard control 35 (30 in Example 1).
Where [5] appears, read: addition concentration 0.001 mg/ml in normal plasma.
Setting [6] is: addition concentration 0.01 mg/ml in normal plasma.
Where [7] appears, read: addition concentration 0.1 mg/ml in normal plasma.
The mark [8] stands for this setting: addition concentration 1 mg/ml in normal plasma.
The mark [9] stands for this setting: addition concentration 0.001 mg/ml.
[10] abbreviates: addition concentration 0.01 mg/ml.
Where [11] appears, read: addition concentration 0.1 mg/ml.
Setting [12] is: addition concentration 0.001 mg/ml in normal plasma, standard control 35.
Where [13] appears, read: addition concentration 0.01 mg/ml in normal plasma, standard control 35.
Setting [14] is: addition concentration 0.1 mg/ml in normal plasma, standard control 35.

Regarding gellan sulfate [Example 1], the “PT time, extension (in words)” value in assay [1] (gellan sulfate added to plasma, versus sample without gellan sulfate) is “significant extension of the time was not observed”. The same substance displayed an APTT in assay [2] (setting [4]) of 95 s.

gellan sulfate [Example 4]: the PT in assay [1] (setting [5]) is 13 s; in assay [1] (setting [6]), 12 s; in assay [1] (setting [7]), 14 s; in assay [1] (setting [8]) it was at least 300 s. Also, the “Normal blood coagulation time” value is 39.9 min in assay [3] (setting [9]), 72 min in assay [3] (setting [10]), at least 600 min in assay [3] (setting [11]) and at least 600 min in assay [3] (addition concentration 1 mg/ml). Besides, the APTT in assay [2] (setting [12]) was 45 s; in assay [2] (setting [13]), 45 s; in assay [2] (setting [14]), at least 300 s; in assay [2] (setting [4]) it was at least 300 s.

As for heparin [reference compound], the PT is 13 s in assay [1] (setting [5]), 13 s in assay [1] (setting [6]), at least 300 s in assay [1] (setting [7]) and at least 300 s in assay [1] (setting [8]). In addition, the “Normal blood coagulation time” value in assay [3] (setting [9]) is 105.6 min; in assay [3] (setting [10]), at least 600 min; in assay [3] (setting [11]), at least 600 min; in assay [3] (addition concentration 1 mg/ml), at least 600 min. In addition, the APTT in assay [2] (setting [12]) was 50 s; in assay [2] (setting [13]) it was at least 300 s; in assay [2] (setting [14]), at least 300 s; in assay [2] (setting [4]), at least 300 s.

Consider “chondroitin sulfate [reference compound]”, for which the “coagulation time of normal blood, extension (in words)” value in assay [3] (addition of 0.01 mg/ml) is “not observed at all to be extended”.

In the case of gellan sulfate [Example 3], the PT was 11.3 s in assay [1] (setting [5]), 11.8 s in assay [1] (setting [6]), 19.3 s in assay [1] (setting [7]) and at least 300 s in assay [1] (setting [8]). Further, the “Normal blood coagulation time” value was 58.9 min in assay [3] (setting [9]), 138.8 min in assay [3] (setting [10]), 216.3 min in assay [3] (setting [11]) and at least 600 min in assay [3] (addition concentration 1 mg/ml). The APTT in assay [2] (setting [12]) is 49 s; in assay [2] (setting [13]) it was 103.5 s; in assay [2] (setting [14]), at least 300 s; in assay [2] (setting [4]), at least 300 s.

For the substance “gellan sulfate [compound 1, reference compound]”, the “coagulation time of normal blood, extension (in words)” value in assay [3] (1 mg/ml added) was “not observed to be extended”.

With gellan sulfate [Example 2], the PT was 11.6 s in assay [1] (setting [5]), 11.7 s in assay [1] (setting [6]), 15.8 s in assay [1] (setting [7]) and at least 300 s in assay [1] (setting [8]). In addition, the “Normal blood coagulation time” value is 54 min in assay [3] (setting [9]), 93 min in assay [3] (setting [10]), 230 min in assay [3] (setting [11]) and at least 600 min in assay [3] (addition concentration 1 mg/ml). For the same substance, the APTT in assay [2] (setting [12]) is 38.1 s; in assay [2] (setting [13]), 30 s; in assay [2] (setting [14]), at least 300 s; in assay [2] (setting [4]) it was at least 300 s.
